Drawing on paper PMC6934184, “Selective DNA-PKcs inhibition extends the therapeutic index of localized radiotherapy and chemotherapy” (The Journal of Clinical Investigation, 2019), this text covers inhibition for one molecule.

This test deals with T1, SGKL (SGK3) (Homo sapiens, UniProt Q96BR1).
T1 construct: purchased Thermo Fisher Scientific (Life Technologies) SelectScreen
Kind of test: SelectScreen Z'LYTE. It is filed as biochemical. A digest of the protocol:
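Percent values come from Thermo SelectScreen profiling of NU5455, combining activity and binding assays. CSF1R was run in Z'LYTE format at Km app ATP, and CAMK1 in Adapta format with ATP listed at 10.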

T1 sequence (Q96BR1 whole entry): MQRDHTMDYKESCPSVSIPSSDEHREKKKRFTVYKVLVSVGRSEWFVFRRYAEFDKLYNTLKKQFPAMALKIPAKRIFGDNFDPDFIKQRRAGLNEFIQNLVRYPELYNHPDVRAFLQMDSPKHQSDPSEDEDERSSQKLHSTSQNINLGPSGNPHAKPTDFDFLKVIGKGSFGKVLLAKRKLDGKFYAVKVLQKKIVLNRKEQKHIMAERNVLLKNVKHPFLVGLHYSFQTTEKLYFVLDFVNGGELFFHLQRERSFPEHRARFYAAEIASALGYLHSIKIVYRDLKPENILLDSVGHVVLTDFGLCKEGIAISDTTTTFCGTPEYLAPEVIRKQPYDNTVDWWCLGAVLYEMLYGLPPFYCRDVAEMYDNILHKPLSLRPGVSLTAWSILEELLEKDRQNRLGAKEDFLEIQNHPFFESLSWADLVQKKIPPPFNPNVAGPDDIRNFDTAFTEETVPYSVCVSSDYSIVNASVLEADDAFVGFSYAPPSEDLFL

Consider `CN(C(=O)CN1CCOCC1)c1ccc2sc3c(-c4cccc5c(=O)cc(N6CC7CCC(C6)O7)oc45)cccc3c2c1` [NU5455], for which the inhibition at 1 µM was -4.6%.
